Publication PMC9033141, “Beta and Gamma Amino Acid-Substituted Benzenesulfonamides as Inhibitors of Human Carbonic Anhydrases” (Pharmaceuticals, 2022)
Where two headings read alike, the source gives them in different places.

How the values were obtained:
[1] = biological target: T1, CAI (Homo sapiens, UniProt P00915); test: biochemical; format: binding; details: for Intrinsic Gibbs energy change (ΔGint), CAI: 37 °C, calculated (Equation 5); for Kd: FTSA, pH 7.0, 37 °C, read-out: Observed Dissociation Constant (Kd_obs), CAI
T1 construct: made in house; host or cells: E. coli
T1 sequence (P00915 whole entry): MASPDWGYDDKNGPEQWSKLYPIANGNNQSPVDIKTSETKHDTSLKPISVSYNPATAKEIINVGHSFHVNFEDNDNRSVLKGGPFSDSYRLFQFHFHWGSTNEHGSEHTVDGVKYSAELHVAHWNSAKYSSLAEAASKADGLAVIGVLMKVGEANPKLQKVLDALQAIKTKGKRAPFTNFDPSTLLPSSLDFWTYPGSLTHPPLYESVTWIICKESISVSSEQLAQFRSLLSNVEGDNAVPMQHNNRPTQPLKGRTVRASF
Procedure: (§1) Human CA isozymes were expressed in E. coli (CAI, II, III, IV, VA, VB, VII, XII, XIII, XIV) or mammalian cells (CAVI and CAIX), chromatographically purified following the published protocols [47], and stored at −80 °C. The protein concentration was determined by UV absorption at 280 nm using Beer–Lambert law.
(§2) The QIAGEN Rotor-Gene Q was used to carry out the experiments, with a blue channel used for excitation (365 nm) and detection (460 nm). FTSA in this case relies on an extrinsic probe, 8-anilino-1-naphthalenesulfonate (ANS), to detect the fluorescence increase during protein denaturation, from which protein melting temperature (Tm) can be determined. […] The observed affinity of ligands for CAs was determined by plotting the Tm as a function of ligand concentration and then fitting a curve as described previously [48]. […] Samples were heated from 25 °C to 99 °C at the speed of 1 °C/min.
(§3) The intrinsic thermodynamic parameters were calculated as described in [40]. The intrinsic reaction of inhibitor binding to CA is shown in Equation (1).
(§4) When calculating Kd_int values, these protein and ligand fractions from Equation (1) have to be accounted for (Equations (2) and (3)). The intrinsic dissociation constant is calculated by multiplying Kd_obs value by the corresponding fractions of protein and ligand (Equation (4)). (2) fRSO2NH^−=10^pH−pKa_RSO2NH2/1+10^pH−pKa_RSO2NH2 (3) fCAZnH2O=1−10^pH−pKa_CAZnH2O/1+10^pH−pKa_CAZnH2O (4) Kd_int=Kd_obs×fRSO2NH^−×fCAZnH2O (5) ΔGint0=RTlnKd_int
(§5) The intrinsic standard Gibbs energy changes upon binding were calculated using Equation (5). Here, R—universal ideal gas constant (8.3144 J/mol·K), T—absolute temperature (310.15 K).

[2] = biological target: T2, CAIII (Homo sapiens, UniProt P07451); test: Fluorescent thermal shift assay (FTSA), CAIII; format: binding; details: for Kd: FTSA, pH 7.0, 37 °C, read-out: Observed Dissociation Constant (Kd_obs), CAIII
T2 construct: made in house; host or cells: E. coli
T2 sequence (P07451 whole entry): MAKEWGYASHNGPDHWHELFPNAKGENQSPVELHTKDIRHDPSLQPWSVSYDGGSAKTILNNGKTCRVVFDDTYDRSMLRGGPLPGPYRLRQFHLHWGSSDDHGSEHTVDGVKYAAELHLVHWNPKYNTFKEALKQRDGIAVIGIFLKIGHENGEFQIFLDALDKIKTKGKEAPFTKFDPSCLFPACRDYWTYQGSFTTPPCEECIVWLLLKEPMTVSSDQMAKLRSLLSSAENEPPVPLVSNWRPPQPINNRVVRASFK

[3] = biological target: T3, CAIV (Homo sapiens, UniProt P22748); test: Fluorescent thermal shift assay (FTSA), CAIV; format: binding; details: for Intrinsic Gibbs energy change (ΔGint), CAIV: 37 °C, calculated (Equation 5); for Kd: FTSA, pH 7.0, 37 °C, read-out: Observed Dissociation Constant (Kd_obs), CAIV;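 on all read-outs here: recombinant human enzyme, thermal denaturation followed by ANS fluorescence, melting temperature versus ligand concentration fitted for Kd_obs, intrinsic value corrected for deprotonated sulfonamide and Zn-bound water fractions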
T3 construct: made in house; host or cells: E. coli
T3 sequence (P22748 19-312): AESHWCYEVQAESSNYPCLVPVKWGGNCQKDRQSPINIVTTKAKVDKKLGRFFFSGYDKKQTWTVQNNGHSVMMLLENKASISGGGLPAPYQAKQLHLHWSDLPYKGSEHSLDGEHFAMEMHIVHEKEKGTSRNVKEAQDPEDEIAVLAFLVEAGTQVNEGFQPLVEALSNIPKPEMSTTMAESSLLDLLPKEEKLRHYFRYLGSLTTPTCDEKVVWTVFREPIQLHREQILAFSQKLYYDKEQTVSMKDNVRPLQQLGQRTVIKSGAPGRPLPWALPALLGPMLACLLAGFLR
Procedure: as §1, §2
(§6) The intrinsic thermodynamic parameters were calculated as described in [40]. The intrinsic reaction of inhibitor binding to CA is shown in Equation (1). […] It is known that CA proteins bind sulfonamides only when water molecules are coordinated to the Zn(II) ion, and sulfonamides only bind to CA proteins when their amino group is deprotonated (confirmed by neutron crystallography [53, 54, 55]):(1) CA Zn^II−H2O+RSO2NH^−⇄ CA Zn^II−NH SO2R+H2O
as §4, §5

[4] = biological target: T4, CAIX (Homo sapiens, UniProt Q16790); test: biochemical; format: binding; details: for Intrinsic Gibbs energy change (ΔGint), CAIX: 37 °C, calculated (Equation 5); for Kd: FTSA, pH 7.0, 37 °C, read-out: Observed Dissociation Constant (Kd_obs), CAIX
T4 construct: made in house
Procedure: as §1, §2, §3, §4, §5

[5] = biological target: T5, CAXIII (Homo sapiens, UniProt Q8N1Q1); details: 37 °C; calculated (Equation 5);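 further: recombinant human CAXIII melting temperature tracked by ANS fluorescence in thermal shift assay, Tm fitted against ligand concentration, intrinsic value corrects Kd for deprotonated sulfonamide and Zn-bound water fractions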
T5 sequence (Q8N1Q1 whole entry): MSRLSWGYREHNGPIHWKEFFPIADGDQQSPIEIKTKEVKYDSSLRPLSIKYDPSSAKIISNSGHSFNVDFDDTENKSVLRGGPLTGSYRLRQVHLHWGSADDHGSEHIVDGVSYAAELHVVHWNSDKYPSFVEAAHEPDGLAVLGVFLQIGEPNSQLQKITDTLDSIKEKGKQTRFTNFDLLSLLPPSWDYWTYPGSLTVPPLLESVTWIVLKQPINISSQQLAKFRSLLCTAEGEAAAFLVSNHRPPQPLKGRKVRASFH

[6] = biological target: T6, CAVI (Homo sapiens, UniProt P23280); test: Fluorescent thermal shift assay (FTSA), CAVI; format: binding; details: for Intrinsic Gibbs energy change (ΔGint), CAVI: 37 °C, calculated (Equation 5); for Kd: FTSA, pH 7.0, 37 °C, read-out: Observed Dissociation Constant (Kd_obs), CAVI;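 on all read-outs here: human CAVI expressed in mammalian cells, ANS fluorescence tracked during thermal unfolding, melting temperature fitted against ligand concentration, intrinsic values corrected for deprotonated sulfonamide and Zn-bound water fractions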
T6 construct: made in house
T6 sequence (P23280 21-290 limits assumed): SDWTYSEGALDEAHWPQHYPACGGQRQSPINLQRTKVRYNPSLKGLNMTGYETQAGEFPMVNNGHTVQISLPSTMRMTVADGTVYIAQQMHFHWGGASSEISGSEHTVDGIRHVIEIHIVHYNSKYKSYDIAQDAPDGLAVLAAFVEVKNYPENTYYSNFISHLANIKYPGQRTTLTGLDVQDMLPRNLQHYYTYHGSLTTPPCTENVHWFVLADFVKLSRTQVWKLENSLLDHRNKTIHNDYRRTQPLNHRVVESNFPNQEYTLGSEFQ
Procedure: as §1, §2, §6, §4, §5

[7] = biological target: T7, CAXIV (Homo sapiens, UniProt Q9ULX7); test: Fluorescent thermal shift assay (FTSA), CAXIV; format: binding; details: for Intrinsic Gibbs energy change (ΔGint), CAXIV: 37 °C, calculated (Equation 5); for Kd: FTSA, pH 7.0, 37 °C, read-out: Observed Dissociation Constant (Kd_obs), CAXIV;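 on all read-outs here: recombinant human CA XIV from E. coli, ANS-based thermal shift: Kd_obs fitted from melting temperature versus ligand concentration, ΔGint from Kd_obs corrected for deprotonated sulfonamide and Zn-water fractions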
T7 construct: made in house; host or cells: E. coli
T7 sequence (Q9ULX7 16-337): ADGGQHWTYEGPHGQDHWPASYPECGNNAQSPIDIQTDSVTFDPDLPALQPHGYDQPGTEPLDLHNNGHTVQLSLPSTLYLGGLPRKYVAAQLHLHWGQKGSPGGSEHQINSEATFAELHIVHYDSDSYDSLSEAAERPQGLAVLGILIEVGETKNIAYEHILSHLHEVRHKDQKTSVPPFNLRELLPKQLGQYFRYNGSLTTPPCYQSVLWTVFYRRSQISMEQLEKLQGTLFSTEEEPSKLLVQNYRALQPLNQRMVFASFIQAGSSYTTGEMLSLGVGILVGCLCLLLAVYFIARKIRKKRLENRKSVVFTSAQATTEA
Procedure: as §1, §2, §6, §4, §5

[8] = biological target: T8, CAXII (Homo sapiens, UniProt O43570); test: biochemical; format: binding; details: for Intrinsic Gibbs energy change (ΔGint), CAXII: 37 °C, calculated (Equation 5); for Kd: FTSA, pH 7.0, 37 °C, read-out: Observed Dissociation Constant (Kd_obs), CAXII
T8 construct: made in house; host or cells: E. coli
T8 sequence (O43570 25-354): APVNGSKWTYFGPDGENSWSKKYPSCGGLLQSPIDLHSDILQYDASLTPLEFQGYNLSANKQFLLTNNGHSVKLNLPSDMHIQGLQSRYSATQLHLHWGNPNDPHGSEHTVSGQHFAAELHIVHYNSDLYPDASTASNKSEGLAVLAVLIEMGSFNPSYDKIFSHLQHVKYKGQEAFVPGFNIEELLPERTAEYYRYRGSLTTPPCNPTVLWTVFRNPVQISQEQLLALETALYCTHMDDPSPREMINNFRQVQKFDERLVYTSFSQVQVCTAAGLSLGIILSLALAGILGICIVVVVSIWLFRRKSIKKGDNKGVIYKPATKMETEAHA

[9] = biological target: T5, CAXIII; test: biochemical; details: Observed Dissociation Constant (Kd_obs), FTSA, pH 7.0, 37 °C
[10] = biological target: T9, CAVA (Homo sapiens, UniProt P35218); test: Fluorescent thermal shift assay (FTSA), CAVA; format: binding; details: for Kd: FTSA, pH 7.0, 37 °C, read-out: Observed Dissociation Constant (Kd_obs), CAVA
T9 construct: made in house; host or cells: E. coli
T9 sequence (P35218 39-305): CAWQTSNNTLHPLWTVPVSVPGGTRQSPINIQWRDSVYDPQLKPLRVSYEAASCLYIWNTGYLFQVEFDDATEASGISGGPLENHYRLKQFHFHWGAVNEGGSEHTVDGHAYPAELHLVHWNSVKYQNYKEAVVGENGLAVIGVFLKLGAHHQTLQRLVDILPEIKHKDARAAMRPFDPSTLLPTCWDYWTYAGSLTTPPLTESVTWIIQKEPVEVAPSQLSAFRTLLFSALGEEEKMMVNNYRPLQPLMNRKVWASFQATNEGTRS
Procedure: as §1, §2, §6, §4, §5

[11] = biological target: T10, CAVB (Homo sapiens, UniProt Q9Y2D0); test: Fluorescent thermal shift assay (FTSA), CAVB; format: binding; details: for Intrinsic Gibbs energy change (ΔGint), CAVB: 37 °C, calculated (Equation 5); for Kd: FTSA, pH 7.0, 37 °C, read-out: Observed Dissociation Constant (Kd_obs), CAVB
T10 construct: made in house; host or cells: E. coli
T10 sequence (Q9Y2D0 34-317): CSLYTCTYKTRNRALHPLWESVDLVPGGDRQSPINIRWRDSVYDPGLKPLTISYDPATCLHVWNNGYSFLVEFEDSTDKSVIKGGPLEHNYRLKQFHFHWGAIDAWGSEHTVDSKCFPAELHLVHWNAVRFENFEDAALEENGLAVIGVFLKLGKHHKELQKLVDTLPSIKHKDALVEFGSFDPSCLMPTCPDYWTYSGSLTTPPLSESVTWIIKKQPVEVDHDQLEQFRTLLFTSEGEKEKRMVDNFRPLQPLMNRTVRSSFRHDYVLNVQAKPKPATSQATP
Procedure: as §1, §2, §6, §4, §5

[12] = biological target: T11, CAVII (Homo sapiens, UniProt P43166); test: Fluorescent thermal shift assay (FTSA), CAVII; format: binding; details: for Intrinsic Gibbs energy change (ΔGint), CAVII: 37 °C, calculated (Equation 5); for Kd: FTSA, pH 7.0, 37 °C, read-out: Observed Dissociation Constant (Kd_obs), CAVII
T11 construct: made in house; host or cells: E. coli
T11 sequence (P43166 whole entry): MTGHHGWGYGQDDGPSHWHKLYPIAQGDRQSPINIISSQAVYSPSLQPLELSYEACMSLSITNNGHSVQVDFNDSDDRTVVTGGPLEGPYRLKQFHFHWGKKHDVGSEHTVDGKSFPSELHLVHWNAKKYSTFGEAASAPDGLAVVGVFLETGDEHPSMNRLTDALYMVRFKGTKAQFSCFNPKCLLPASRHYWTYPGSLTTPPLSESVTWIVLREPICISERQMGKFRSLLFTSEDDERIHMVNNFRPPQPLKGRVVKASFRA
Procedure: as §1, §2, §6, §4, §5

[13] = biological target: T12, CAII (Homo sapiens, UniProt P00918); test: biochemical; format: binding; details: for Intrinsic Gibbs energy change (ΔGint), CAII: 37 °C, calculated (Equation 5); for Kd: FTSA, pH 7.0, 37 °C, read-out: Observed Dissociation Constant (Kd_obs), CAII
T12 construct: made in house; host or cells: E. coli
Procedure: as §1, §2, §3, §4, §5

[14] = Determination of compound sulfonamide group pKa (UV-Vis spectra at different pH); format: physicochemical
Procedure: To calculate the intrinsic thermodynamic parameters of compound binding to CA isozymes, the pKa values of the sulfonamide group and the water molecule bound to the Zn(II) ion at the active site of CA proteins had to be determined. The pKa values for CA isozyme-bound water molecules were taken from, CAI—8.1; CAII—6.9; CAIII—6.5; CAIV—6.6; CAVA—6.7; CAVB—7.0; CAVI—6.0; CAVII—6.8; CAIX—6.6; CAXII—6.8; CAXIII—8.0; CAXIV—6.1. […] The pKa values were calculated as described previously in [28, 52] by normalizing the absorbance, plotting it as a function of pH, then fitting to the Henderson–Hasselbalch equation using the least square method (Figure S105).
Since the pKa values were only able to be measured for compound group 26–36, due to universal buffer pH limitations, intrinsic thermodynamic parameters were not calculated for compounds 2(a,b)–25(a,b), only for compounds 26–36 using experimentally obtained pKa values when possible and using the average pKa value mentioned above for compounds not measured.

[15] = universal buffer, spectrophotometric, 37 °C, read-out: Sulfonamide pKa
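Wherever Observed Dissociation Constant (Kd obs), CAXII is given: recombinant CAXII made in E. coli, ANS-fluorescence thermal shift with affinity fitted from Tm versus ligand concentration, intrinsic energy from Kd_obs corrected for deprotonated sulfonamide and Zn-water fractions.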

## CCOC(=O)c1sc(N(CCC(=O)NN)c2ccc(S(N)(=O)=O)cc2)nc1C [Compound 33]
[1]
  Intrinsic Gibbs energy change (ΔGint), CAI: -51.2 kJ/mol
  Kd: 3.1 µM
[2]
  Kd: ≥ 200 µM
[3]
  Intrinsic Gibbs energy change (ΔGint), CAIV: -54.5 kJ/mol
  Kd: 2.8 µM
[4]
  Intrinsic Gibbs energy change (ΔGint), CAIX: -58.4 kJ/mol
  Kd: 0.63 µM
[5]
  Intrinsic Gibbs energy change (ΔGint), CAXIII: -54.7 kJ/mol
[6]
  Intrinsic Gibbs energy change (ΔGint), CAVI: -51.8 kJ/mol
  Kd: 25 µM
[7]
  Intrinsic Gibbs energy change (ΔGint), CAXIV: -59.8 kJ/mol
  Kd: 0.91 µM
other
  melting point: 206 to 207 °C
[8]
  Intrinsic Gibbs energy change (ΔGint), CAXII: -48.0 kJ/mol
  Kd: 26 µM
[9]
  Kd: 0.83 µM
[10]
  Kd: ≥ 200 µM
[11]
  Intrinsic Gibbs energy change (ΔGint), CAVB: -61.7 kJ/mol
  Kd: 0.1 µM
[12]
  Intrinsic Gibbs energy change (ΔGint), CAVII: -56.1 kJ/mol
  Kd: 1.1 µM
[13]
  Intrinsic Gibbs energy change (ΔGint), CAII: -57.8 kJ/mol
  Kd: 0.5 µM
[14]; value marked *: average of measured compounds, used for calculation, read-out: Sulfonamide pKa (not determined, average of all measured compounds)
  pKa: 10.1

## Cc1csc(N(CCC(=O)NN)c2ccc(S(N)(=O)=O)cc2)n1 [Compound 29, 4-((3-Hydrazineyl-3-oxopropyl)(4-methylthiazol-2-yl)amino)benzenesulfonamide]
[1]
  Intrinsic Gibbs energy change (ΔGint), CAI: -60.2 kJ/mol
  Kd: 0.15 µM
[2]
  Kd: ≥ 200 µM
[3]
  Intrinsic Gibbs energy change (ΔGint), CAIV: -57.3 kJ/mol
  Kd: 1.5 µM
[4]
  Intrinsic Gibbs energy change (ΔGint), CAIX: -64.9 kJ/mol
  Kd: 0.08 µM
[5]
  Intrinsic Gibbs energy change (ΔGint), CAXIII: -54.0 kJ/mol
[6]
  Intrinsic Gibbs energy change (ΔGint), CAVI: -53.6 kJ/mol
  Kd: 20 µM
[7]
  Intrinsic Gibbs energy change (ΔGint), CAXIV: -66.0 kJ/mol
  Kd: 0.13 µM
other
  melting point: 167 to 168 °C
[8]
  Intrinsic Gibbs energy change (ΔGint), CAXII: -58.1 kJ/mol
  Kd: 0.83 µM
[9]
  Kd: 1.7 µM
[10]
  Kd: ≥ 200 µM
[11]
  Intrinsic Gibbs energy change (ΔGint), CAVB: -63.5 kJ/mol
  Kd: 0.077 µM
[12]
  Intrinsic Gibbs energy change (ΔGint), CAVII: -58.6 kJ/mol
  Kd: 0.67 µM
[13]
  Intrinsic Gibbs energy change (ΔGint), CAII: -59.7 kJ/mol
  Kd: 0.38 µM
[14]; [15]
  pKa: 10.3

## NS(=O)(=O)c1ccc(N(CCC(=O)O)c2nc(-c3ccc(Cl)cc3)c(Cl)s2)cc1 [Compound 36, 3-((5-Chloro-4-(4-chlorophenyl)thiazol-2-yl)(4-sulfamoylphenyl)amino)propanoic acid]
[1]
  Intrinsic Gibbs energy change (ΔGint), CAI: -64.8 kJ/mol
  Kd: 0.02 µM
[2]; 37 °C, calculated (Equation 5)
  Intrinsic Gibbs energy change (ΔGint), CAIII: -50.9 kJ/mol
[2]
  Kd: 17 µM
[3]
  Intrinsic Gibbs energy change (ΔGint), CAIV: -54.7 kJ/mol
  Kd: 3.3 µM
[4]
  Intrinsic Gibbs energy change (ΔGint), CAIX: -67.5 kJ/mol
  Kd: 0.023 µM
[5]
  Intrinsic Gibbs energy change (ΔGint), CAXIII: -63.1 kJ/mol
[6]
  Intrinsic Gibbs energy change (ΔGint), CAVI: -56.0 kJ/mol
  Kd: 6.3 µM
[7]
  Intrinsic Gibbs energy change (ΔGint), CAXIV: -65.4 kJ/mol
[8]
  Intrinsic Gibbs energy change (ΔGint), CAXII: -62.4 kJ/mol
  Kd: 0.12 µM
[9]
  Kd: 0.023 to 0.04 µM
[10]; 37 °C, calculated (Equation 5)
  Intrinsic Gibbs energy change (ΔGint), CAVA: ≤ -43.7 kJ/mol
[10]
  Kd: ≥ 200 µM
[11]
  Intrinsic Gibbs energy change (ΔGint), CAVB: -58.7 kJ/mol
  Kd: 0.4 µM
[12]
  Intrinsic Gibbs energy change (ΔGint), CAVII: -65.8 kJ/mol
  Kd: 0.033 µM
[13]
  Intrinsic Gibbs energy change (ΔGint), CAII: -64.9 kJ/mol
  Kd: 0.023 to 0.04 µM
[14]; [15]
  pKa: 10.2

## NS(=O)(=O)c1ccc(NCC(CC(=O)NN=Cc2ccccc2)C(=O)NN=Cc2ccccc2)c(Cl)c1 (stereo not drawn) [Compound 6b, 4-((2-(2-(Benzylidene)hydrazine-1-carbonyl)-4-(2-(benzylidene)hydrazineyl)-4-oxobutyl)amino)-3-chlorobenzenesulfonamide]
[1]
  Kd: 1.4 µM
[2]
  Kd: ≥ 200 µM
[3]
  Kd: 4.2 µM
[4]
  Kd: 0.1 µM
[6]
  Kd: 0.67 µM
[7]
  Kd: 0.14 µM
other
  melting point: 212 to 213 °C
[8]
  Kd: 7.9 µM
[9]
  Kd: 0.18 µM
[10]
  Kd: 20 µM
[11]
  Kd: 0.13 µM
[12]
  Kd: 0.29 µM
[13]
  Kd: 0.24 µM

## NS(=O)(=O)c1ccc(NCC(CC(=O)NN=Cc2ccc(C(=O)O)cc2)C(=O)NN=Cc2ccc(C(=O)O)cc2)cc1 (stereo not drawn) [Compound 18a, 4,4′-(((2-(((4-Sulfamoylphenyl)amino)methyl)succinyl)bis(hydrazin-2-yl-1-ylidene))bis(methaneylylidene))dibenzoic acid]
[1]
  Kd: 20 µM
[2]
  Kd: ≥ 200 µM
[3]
  Kd: 33 µM
[4]
  Kd: 1.4 µM
[6]
  Kd: 33 µM
[7]
  Kd: 5 µM
other
  melting point: 308 to 309 °C
[8]
  Kd: 20 µM
[9]
  Kd: 25 µM
[10]
  Kd: 20 µM
[11]
  Kd: 14 µM
[12]
  Kd: 6.7 µM
[13]
  Kd: 5 µM

## NS(=O)(=O)c1ccc(NCC(Cc2n[nH]c(=S)n2-c2ccccc2)c2n[nH]c(=S)n2-c2ccccc2)c(Cl)c1 (stereo not drawn) [Compound 25b, 4-((2,3-bis(4-Phenyl-5-thioxo-4,5-dihydro-1H-1,2,4-triazol-3-yl)propyl)amino)-3-chlorobenzenesulfonamide]
[1]
  Kd: 0.17 µM
[2]
  Kd: 5 µM
[3]
  Kd: 1.4 µM
[4]
  Kd: 0.025 µM
[6]
  Kd: 0.2 µM
[7]
  Kd: 0.025 µM
other
  melting point: 175 to 176 °C
[8]
  Kd: 0.63 µM
[9]
  Kd: 0.4 µM
[10]
  Kd: 38 µM
[11]
  Kd: 1.4 µM
[12]
  Kd: 0.17 µM
[13]
  Kd: 0.025 µM
